The record followed here is patent US20100152429A1, “SODIUM SALT OF DISACCHARIDE COMPOUND, METHOD FOR PRODUCING THE SAME, AND USE OF THE SAME” (Eisai R&D Management Co., Ltd., priority 2006, published 2010).

This data set can be described thus: Storage Safety Test: impurity generation on storage at 25° C., HPLC.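 Further: HPLC peak area percentages of three decomposition products, each sample run alongside a methanol-only blank.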 Type of data set: physicochemical. Conditions: HPLC percentage of area.
Where [1] appears, read: 0 days, stored in glass bottles at 25° C.
Setting [2] is: 1.0 days, stored at 25° C., listed as 3.67 Na salt.
Where [3] appears, read: 1.9 days, stored at 25° C., listed as 3.67 Na salt.
[4] abbreviates: 4.5 days, stored at 25° C., listed as 3.67 Na salt.
Where [5] appears, read: 1.0 days, stored at 25° C., listed as 3.93 Na salt.
Setting [6] is: 1.9 days, stored at 25° C., listed as 3.93 Na salt.
Where [7] appears, read: 4.5 days, stored at 25° C., listed as 3.93 Na salt.

Experimental: When HPLC analysis was performed under the conditions shown in Table 1 for each solution and blank solution (methanol only), three types of decomposition product were identified, and the generation ratio (converted to a monthly basis) was calculated for each of the three decomposition products (impurities A, B and C) as a percentage of area.

For the molecule `CCCCCCC=CCCCCCCCCCC(=O)NC1C(OCC2OC(OP(=O)([O-])[O-])C(NC(=O)CC(=O)CCCCCCCCCCC)C(OCCCCCCCCCC)C2O)OC(COC)C(OP(=O)([O-])[O-])C1OCCC(CCCCCCC)OC.[Na+].[Na+].[Na+].[Na+]` (stereo not drawn) [Comparative Example 1, reference compound], the “Impurity A” value is, setting by setting: under setting [1], 0.00; (1.0 days, stored at 25° C.) 0.06; (1.9 days, stored at 25° C.) 0.08; (4.5 days, stored at 25° C.) 0.12. The “Impurity B” value under setting [1] came out at 0.18; the “Impurity B” value (1.0 days, stored at 25° C.) was determined as 0.36; the “Impurity B” value (1.9 days, stored at 25° C.) came to 0.48; the “Impurity B” value (4.5 days, stored at 25° C.) came out at 0.67. Besides, the “Impurity C” value under setting [1] came out at 0.00; the “Impurity C” value (1.0 days, stored at 25° C.) is reported as 0.00; the “Impurity C” value (1.9 days, stored at 25° C.) turned out to be 0.00; the “Impurity C” value (4.5 days, stored at 25° C.) was found to be 0.00; the “Impurity C” value (8.8 days, stored at 25° C.) is 0.00; the “Impurity C” value (29.5 days, stored at 25° C.) worked out at 0.03.
On to `CCCCCC/C=C\CCCCCCCCCC(=O)N[C@H]1[C@H](OC[C@H]2O[C@H](OP(=O)(O)O)[C@H](NC(=O)CC(=O)CCCCCCCCCCC)[C@@H](OCCCCCCCCCC)[C@@H]2O)O[C@H](COC)[C@@H](OP(=O)(O)O)[C@@H]1OCC[C@@H](CCCCCCC)OC` [Example 2], for which, under setting [1], the “Impurity A” value is 0.00, the “Impurity B” value was determined as 0.00 and the “Impurity C” value is 0.00. For the same molecule, under “18 days, stored at 25° C.”, the “Impurity A” value came to 0.00, the “Impurity B” value is on record as 0.00 and the “Impurity C” value was 0.17.
As for `CCCCCC/C=C\CCCCCCCCCC(=O)N[C@H]1[C@H](OC[C@H]2O[C@H](OP(=O)([O-])[O-])[C@H](NC(=O)CC(=O)CCCCCCCCCCC)[C@@H](OCCCCCCCCCC)[C@@H]2O)O[C@H](COC)[C@@H](OP(=O)([O-])[O-])[C@@H]1OCC[C@@H](CCCCCCC)OC.[Na+].[Na+].[Na+].[Na+]` [Example 3], the “Impurity A” value by setting is: under setting [1], 0.00; under setting [2], 0.00; under setting [3], 0.01; under setting [4], 0.01. Moreover, the “Impurity C” value runs as follows: under setting [1], 0.00; (1.0 days, stored at 25° C.) 0.00; (1.9 days, stored at 25° C.) 0.00; (4.5 days, stored at 25° C.) 0.01; (8.8 days, stored at 25° C.) 0.01; (29.5 days, stored at 25° C., listed as 3.67 Na salt) 0.07. Further, the “Impurity B” value (0 days, stored in glass bottles at 25° C., listed as 3.67 Na salt) is reported as 0.08; the “Impurity B” value under setting [2] was 0.12; the “Impurity B” value under setting [3] is 0.09; the “Impurity B” value under setting [4] stood at 0.13.
Consider `CCCCCC/C=C\CCCCCCCCCC(=O)N[C@H]1[C@H](OC[C@H]2O[C@H](OP(=O)([O-])[O-])[C@H](NC(=O)CC(=O)CCCCCCCCCCC)[C@@H](OCCCCCCCCCC)[C@@H]2O)O[C@H](COC)[C@@H](OP(=O)([O-])[O-])[C@@H]1OCC[C@@H](CCCCCCC)OC.[Na+].[Na+].[Na+].[Na+]` [Example 4], for which the “Impurity B” value reads like this: (0 days, stored in glass bottles at 25° C., listed as 3.93 Na salt) 0.14; under setting [5], 0.26; under setting [6], 0.29; under setting [7], 0.38. Also, the “Impurity A” value stood at 0.03 under setting [5], 0.04 under setting [6] and 0.06 under setting [7]. In addition, the “Impurity C” value (29.5 days, stored at 25° C., listed as 3.93 Na salt) was 0.06.
